Like-named read-outs stand apart in the source and are kept apart here.
Columns and labels:
SARS-CoV-2 PLpro = SARS-CoV-2 PLpro (Severe acute respiratory syndrome coronavirus 2, UniProt P0DTD1); type: biochemical; settings: dose-response, ISG15 substrate
USP14, USP7, cathepsin-L = type: biochemical, human; settings: 10 μM; 1 mM DTT
Protocol: The assay was performed according to the manufacturer protocol, adapted to 384-well format with a final volume of 10 μL. […] 5 μL of cathepsin-L was added and incubated for 30 min at 25 °C. The enzymatic reaction was initiated by adding 5 μL substrate. […] Final assay concentrations of cathepsin-L and substrate were 0.01 ng/μL and 5 μM, respectively.
Plates were sealed and incubated for 30 min at 25 °C, followed by adding 5 μL/0.5 μM Ubiquitin-AMC (R&D Systems #U-550-050) substrate. The fluorescence signal was measured after 30 min of incubation (Ex/Em = 340/460; EnVision, PerkinElmer). […] The assay buffer is 50 mM Tris, 150 mM NaCl, 1 mM DTT, and 0.01% Tween 20 (pH 7.5).

SARS-CoV-2 Mpro = SARS-CoV-2 Mpro (Severe acute respiratory syndrome coronavirus 2, UniProt P0DTD1); type: biochemical; settings: 10 μM; 1 mM DTT
SARS-CoV-2 PLpro-NAB = SARS-CoV-2 PLpro-NAB (Severe acute respiratory syndrome coronavirus 2, UniProt P0DTD1); test: biochemical; settings: for HC PLpro-NAB inhibition [%] 20 μM triplicates 1 mM DTT buffer: hit confirmation, DMSO = 0%; for HC PLpro-NAB inhibition [%] 20 μM triplicates 1 mM DTT buffer / HP PLpro-NAB inhibition [%] 20 μM triplicates 1 mM L-cys buffer: average (SD), 20 μM PR619 = 100%; for HP PLpro-NAB inhibition [%] 20 μM triplicates 1 mM L-cys buffer / IC50: hit profiling
[1] = Table S1, 20 µM, DTT buffer
[2] = system: SARS-CoV-2 BetaCoV/Belgium/GHB-03021/2020 strain; type: cell-based; settings: 300 μM, 2 μM CP-100356

Compound	Potency against PLpro compared with PLpro-NAB (SARS-CoV-2 PLpro)	Selectivity versus human USP14, USP7, cathepsin-L (USP14, USP7, cathepsin-L)	Preference PLpro over Mpro (SARS-CoV-2 Mpro)	Inhibition in L-cysteine buffer versus DTT buffer (dose-response) (SARS-CoV-2 PLpro-NAB; 1 mM L-cysteine vs 1 mM DTT)	Inhibitory activity on retest in 1 mM L-cysteine (SARS-CoV-2 PLpro-NAB; 50% inhibition at 20 μM, 1 mM L-cysteine)	HC PLpro-NAB inhibition [%] 20 μM triplicates 1 mM DTT buffer (SARS-CoV-2 PLpro-NAB; 1 mM DTT buffer, listed as semapimod (EOS))	HC PLpro-NAB inhibition [%] 20 μM triplicates 1 mM DTT buffer (SARS-CoV-2 PLpro-NAB; 1 mM DTT buffer, listed as semapimod (FhG))	HP PLpro-NAB inhibition [%] 20 μM triplicates 1 mM L-cys buffer (SARS-CoV-2 PLpro-NAB; 1 mM L-cys buffer, listed as semapimod (EOS))	HP PLpro-NAB inhibition [%] 20 μM triplicates 1 mM L-cys buffer (SARS-CoV-2 PLpro-NAB; 1 mM L-cys buffer, listed as semapimod (FhG))	IC50 (SARS-CoV-2 PLpro-NAB; read-out: HP PLpro-NAB IC50 [μM] duplicates 1 mM L-cys buffer, 1 mM L-cys buffer, listed as semapimod (EOS)) [µM]	IC50 (SARS-CoV-2 PLpro-NAB; read-out: HP PLpro-NAB IC50 [μM] duplicates 1 mM L-cys buffer, 1 mM L-cys buffer, listed as semapimod (FhG)) [µM]	IC50 (SARS-CoV-2 PLpro-NAB; read-out: HP PLpro-NAB IC50 [μM] triplicates 1 mM DTT buffer, 1 mM DTT buffer, listed as semapimod (EOS)) [µM]	IC50 (SARS-CoV-2 PLpro-NAB; read-out: HP PLpro-NAB IC50 [μM] triplicates 1 mM DTT buffer, 1 mM DTT buffer, listed as semapimod (FhG)) [µM]	Interference inhibition [%] 20 µM based on product interference DTT BUFFER ([1]; listed as Semapimod (EOS)) [%]	Interference inhibition [%] 20 µM based on product interference DTT BUFFER ([1]; listed as Semapimod (FhG)) [%]	Spike RNA copy number [2]	Interference inhibition [%] 20 µM based on product interference DTT BUFFER ([1]; listed as CPI-169 (EOS)) [%]	Interference inhibition [%] 20 µM based on product interference DTT BUFFER ([1]; listed as CPI-169 (FhG)) [%]
C/C(=N\NC(=N)N)c1cc(NC(=O)CCCCCCCCC(=O)Nc2cc(/C(C)=N/NC(=N)N)cc(/C(C)=N/NC(=N)N)c2)cc(/C(C)=N/NC(=N)N)c1 [semapimod]	activity exclusively against PLpro-NAB	active across all of the tested targets	preferential inhibition of PLpro over Mpro	did not show variations in inhibition potency or thermal stability	retained their inhibitory activity	140.16 (2.99) %	118.80 (3.35) %	50.46 (6.98) %	51.28 (5.64) %	> 20	14.4	1.21	5.23	9.91	-5.72			
CCS(=O)(=O)N1CCC([C@@H](C)n2c(C)c(C(=O)NCc3c(OC)cc(C)[nH]c3=O)c3ccccc32)CC1 [CPI-169]			preferential inhibition of PLpro over Mpro													reduced the Spike RNA copy number significantly	9.34	-0.73
